The source of these data is patent US9486506B2 (Novo Nordisk A/S, priority 2011, dated 2016).

Numbered stars: 1 amine (or outer) side, 2 acyl side, 3 side chain; on linkers, the order of the positions; unused ones are H or OH. Side chains are listed from the residue outwards. Peptide text beside a SMILES is read from it. * marks the point of attachment. C18 diacid = O=C(O)CCCCCCCCCCCCCCCCC(=O)*; γGlu = O=C(O)[C@H](CCC(=O)[*:2])N[*:1]; AEEA = NCCOCCOCC(=O)O

A short description of data set [1]: Assay (XI) Pharmacokinetic study in minipigs. The data set is classed as in vivo, Göttingen minipigs. As to conditions: both sexes, Göttingen, minipig, plasma, iv, i.v. administration, terminal half-life, read-out: iv PK minipig [T½] (converted). Here is the method: Buffer: • 50 mM Dinatriumphosphatdihydrat • 184 mM Propylenglycol • 58 mM Phenol • pH adjusted to 8.15 with H3PO4. In cases where pH was adjusted to 8.15 after re-suspension of analogues, 0.2 M NaOH was used. Assay (XI) Pharmacokinetic Study in Minipigs
This is done in a pharmacokinetic (PK) study, whereamong other parameters the terminal half-life and the clearance of the derivative in question is determined. Increasing the terminal half-life and decreasing the clearance means that the compound of study is eliminated slower from the body.
Male or female Göttingen minipigs were obtained from Ellegaard Göttingen Minipigs (Dalmose, Denmark) approximately 7-14 months of age and weighing from approximately 16-35 kg were used in the studies. The minipigs were housed either individually (pigs with permanent catheters) or in a group and fed restrictedly once or twice daily with SDS minipig diet (Special Diets Services, Essex, UK). In some studies two permanent central venous catheters were implanted in vena cava caudalis or cranialis in each animal after at least 2 weeks of acclimatisation. […] On each dosing occasion these pigs were instrumented with a venflon in one ear vein through which the derivatives were dosed. Blood sampling was done by venipuncture in v. jugularis or v. cava cranialis
The animals were either unfasted or fasted for approximately 18 h before dosing and from 0 to 4 h after dosing, but had ad libitum access to water during the whole period.
Intravenous injections (the volume corresponding to usually 2-3 nmol/kg, for example 0.1 ml/kg) of the compounds were given through one catheter or through the venflon, and blood was sampled at predefined time points for up till 13 days post dosing (preferably through the other catheter or by venipuncture). Blood samples (for example 0.8 ml) were collected in tubes with EDTA buffer (8 mM) (sometimes aprotinin 500 KIU/ml blood was added) and then centrifuged at 4° C. and 1942 G for 10 minutes. […] Based on these measurements, time-plasma concentration profiles for the compound of study are plotted and a so-called non-compartmental pharmacokinetic analysis of the data is performed in WinNonlin v. 5.0 or Phoenix v. 6.2 (Pharsight Inc., Mountain View, Calif., USA) or other relevant software for PK analysis. For most compounds, the terminal part of the plasma-concentration profiles will be linear when drawn in a semi-logarithmic plot, reflecting that after the initial distribution, drug is removed from the body at a constant fractional rate. The rate (lambda Z or is equal to minus the slope of the terminal part of the plot. From this rate, also the terminal half-life may be calculated, as t½=ln(2)/λz (see, e.g., Johan Gabrielsson and Daniel Weiner: Pharmacokinetics and Pharmacodynamic Data Analysis. Concepts & Applications, 3rd Ed., Swedish Pharmaceutical Press, Stockholm (2000)).
Clearance is defined as the dose (D) divided by area under the curve (AUC) on the plasmaconcentration versus time profile (Rowland, M and Tozer T N: Clinical Pharmacokinetics: Concepts and Applications, 3rd edition, 1995 Williams Wilkins)

A short description of data set [2]: Assay (X) Chemical stability assessment by RP-UPLC. The data set is classed as physicochemical. As to conditions: pH 8.15, 14 days at 37° C. vs 5° C., 333 μM.
The target in a further data set is T1, glucagon receptor (Homo sapiens, UniProt P47871).
T1 construct: expressed in transfected cells
As to the kind of experiment: Assay (I) Glucagon activity (cAMP biosensor, FLIPR). Format: cell-based.

T1 sequence (P47871 26-477): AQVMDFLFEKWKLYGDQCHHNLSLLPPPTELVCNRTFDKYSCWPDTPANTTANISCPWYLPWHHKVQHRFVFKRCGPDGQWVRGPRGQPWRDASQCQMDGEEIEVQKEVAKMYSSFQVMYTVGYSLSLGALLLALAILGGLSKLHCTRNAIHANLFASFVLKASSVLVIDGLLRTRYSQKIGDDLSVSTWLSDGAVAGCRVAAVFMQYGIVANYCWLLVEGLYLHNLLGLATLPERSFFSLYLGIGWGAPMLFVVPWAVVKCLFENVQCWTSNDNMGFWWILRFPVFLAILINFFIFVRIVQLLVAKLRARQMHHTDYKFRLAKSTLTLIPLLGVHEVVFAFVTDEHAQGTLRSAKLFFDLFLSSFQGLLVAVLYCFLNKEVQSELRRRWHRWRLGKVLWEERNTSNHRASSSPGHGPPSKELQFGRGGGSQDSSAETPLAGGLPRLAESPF

For the compound `CC(C)C[C@H](NC(=O)[C@H](CC(=O)O)NC(=O)[C@H](CC(C)C)NC(=O)[C@H](Cc1ccc(O)cc1)NC(=O)[C@H](CCCCN)NC(=O)[C@H](CO)NC(=O)[C@H](Cc1ccc(O)cc1)NC(=O)[C@H](CC(=O)O)NC(=O)[C@H](CO)NC(=O)[C@@H](NC(=O)[C@H](Cc1ccccc1)NC(=O)[C@@H](NC(=O)CNC(=O)[C@H](CCC(N)=O)NC(=O)[C@H](CO)NC(=O)[C@@H](N)Cc1c[nH]cn1)[C@@H](C)O)[C@@H](C)O)C(=O)N[C@@H](CCCNC(=N)N)C(=O)N[C@@H](CCCNC(=N)N)C(=O)N[C@@H](C)C(=O)N[C@@H](CCC(N)=O)C(=O)N[C@@H](CC(=O)O)C(=O)N[C@@H](Cc1ccccc1)C(=O)N[C@H](C(=O)N[C@@H](CCCCNC(=O)CC[C@H](NC(=O)CC[C@H](NC(=O)CC[C@H](NC(=O)CC[C@H](NC(=O)CCCCCCCCCCCCCCCCC(=O)O)C(=O)O)C(=O)O)C(=O)O)C(=O)O)C(=O)N[C@@H](Cc1c[nH]c2ccccc12)C(=O)N[C@@H](CC(C)C)C(=O)N[C@@H](CC(C)C)C(=O)N[C@@H](CO)C(=O)N[C@H](C(=O)O)[C@@H](C)O)C(C)C` [Example 80, N^ε24-[(4S)-4-carboxy-4-[[(4S)-4-carboxy-4-[[(4S)-4-carboxy-4-[[(4S)-4-carboxy-4-(17-carboxyheptadecanoylamino)butanoyl]amino]butanoyl]amino]butanoyl]amino]butanoyl]-[Leu16,Lys24,Leu27,Ser28]-Glucagon], the half-life in data set [1] was 60.9 h. Also, the “Chemical stability [Purity loss/14 days 37 C.]” value in data set [2] is 4.5%. For the same compound, the EC50 (in general, the concentration that produces a half-maximal response) on glucagon receptor was found to be 0.126 nM.
For `CC(C)C[C@H](NC(=O)[C@H](CC(=O)O)NC(=O)[C@H](CC(C)C)NC(=O)[C@H](Cc1ccc(O)cc1)NC(=O)[C@H](CCCNC(=N)N)NC(=O)[C@H](CO)NC(=O)[C@H](Cc1ccc(O)cc1)NC(=O)[C@H](CC(=O)O)NC(=O)[C@H](CO)NC(=O)[C@@H](NC(=O)[C@H](Cc1ccccc1)NC(=O)[C@@H](NC(=O)CNC(=O)[C@H](CCC(N)=O)NC(=O)[C@H](CO)NC(=O)[C@@H](N)Cc1c[nH]cn1)[C@@H](C)O)[C@@H](C)O)C(=O)N[C@@H](CCCNC(=N)N)C(=O)N[C@@H](CCCNC(=N)N)C(=O)N[C@@H](C)C(=O)N[C@@H](CCC(N)=O)C(=O)N[C@@H](CC(=O)O)C(=O)N[C@@H](Cc1ccccc1)C(=O)N[C@H](C(=O)N[C@@H](CCCCNC(=O)CC[C@H](NC(=O)CC[C@H](NC(=O)COCCOCCNC(=O)COCCOCCNC(=O)CC[C@H](NC(=O)CCCCCCCCCCCCCCCCC(=O)O)C(=O)O)C(=O)O)C(=O)O)C(=O)N[C@@H](Cc1c[nH]c2ccccc12)C(=O)N[C@@H](CC(C)C)C(=O)N[C@@H](CC(C)C)C(=O)N[C@@H](CO)C(=O)N[C@H](C(=O)O)[C@@H](C)O)C(C)C` [Example 15, N^ε24-[(4S)-4-carboxy-4-[[(4S)-4-carboxy-4-[[2-[2-[2-[[2-[2-[2-[[(4S)-4-carboxy-4-(17-carboxyheptadecanoylamino)butanoyl]amino]ethoxy]ethoxy]acetyl]amino]ethoxy]ethoxy]acetyl]amino]butanoyl]amino]butanoyl]-[Arg^12,Leu^16,Lys^24,Leu^27,Ser^28]-Glucagon] (H-HSQGTFTSDYSRYLDLRRAQDFVK([γGlu-γGlu-AEEA-AEEA-γGlu-C18 diacid])WLLST-OH), in that order: 77.4 h, 5.3% and 0.255 nM.
For the compound `CC(C)C[C@H](NC(=O)[C@H](CC(=O)O)NC(=O)[C@H](CC(C)C)NC(=O)[C@H](Cc1ccc(O)cc1)NC(=O)[C@H](CCCCN)NC(=O)[C@H](CO)NC(=O)[C@@H](NC(=O)[C@H](CC(=O)O)NC(=O)[C@H](CO)NC(=O)[C@@H](NC(=O)[C@H](Cc1ccccc1)NC(=O)[C@@H](NC(=O)CNC(=O)[C@H](CCC(N)=O)NC(=O)[C@H](CO)NC(=O)[C@@H](N)Cc1c[nH]cn1)[C@@H](C)O)[C@@H](C)O)C(C)C)C(=O)N[C@@H](CCCNC(=N)N)C(=O)N[C@@H](CCCNC(=N)N)C(=O)N[C@@H](C)C(=O)N[C@@H](CCC(N)=O)C(=O)N[C@@H](CCC(=O)O)C(=O)N[C@@H](Cc1ccccc1)C(=O)N[C@H](C(=O)N[C@@H](CCCCNC(=O)CC[C@H](NC(=O)COCCOCCNC(=O)COCCOCCNC(=O)CC[C@H](NC(=O)CC[C@H](NC(=O)CCCCCCCCCCCCCCCCC(=O)O)C(=O)O)C(=O)O)C(=O)O)C(=O)N[C@@H](Cc1c[nH]c2ccccc12)C(=O)N[C@@H](CC(C)C)C(=O)N[C@@H](CC(C)C)C(=O)N[C@@H](CO)C(=O)N[C@H](C(=O)O)[C@@H](C)O)C(C)C` [Example 63, N^ε24-[(4S)-4-carboxy-4-[[2-[2-[2-[[2-[2-[2-[[(4S)-4-carboxy-4-[[(4S)-4-carboxy-4-(17-carboxyheptadecanoylamino)butanoyl]amino]butanoyl]amino]ethoxy]ethoxy]acetyl]amino]ethoxy]ethoxy]acetyl]amino]butanoyl]-[Val10,Leu16,Glu21,Lys24,Leu27,Ser28]-Glucagon] (H-HSQGTFTSDVSKYLDLRRAQEFVK([γGlu-AEEA-AEEA-γGlu-γGlu-C18 diacid])WLLST-OH), the half-life in data set [1] is 63.7 h. In data set [2], the “Chemical stability [Purity loss/14 days 37 C.]” value stood at 4.1%. Further, the EC50 on glucagon receptor worked out at 0.088 nM.
